Test results published in ChEMBL document CHEMBL1201862, “PubChem BioAssay data set” (2004).
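Interpolation was linear, between the two tested concentrations surrounding the appropriate level; five concentrations were tested over 48 hours in 96-well plates. GI50: concentration for 50% inhibition of growth.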 Calls of active or inactive are those of the source. Cut-off read from the data, not from the text of the source: active = GI50 up to about 1.1 µM and inactive = higher.

How the values were obtained:
Assay in all cases: NCI anticancer screen, dose series, 48 h
NCI/ADR-RES = system: NCI/ADR-RES
SN12C = system: SN12C
NCI-H522 = system: NCI-H522
ACHN = system: ACHN
HOP-62 = system: HOP-62
CCRF-CEM = system: CCRF-CEM
SR = system: SR
CAKI-1 = system: CAKI-1
Hs-578T = system: Hs-578T
HCT-116 = system: HCT-116
SK-MEL-2 = system: SK-MEL-2
BT-549 = system: BT-549
PC-3 = system: PC-3
SF-295 = system: SF-295
OVCAR-8 = system: OVCAR-8
MDA-MB-435 = system: MDA-MB-435
UO-31 = system: UO-31
LOX IMVI = system: LOX IMVI
COLO 205 = system: COLO 205
A549 = system: A549

SMILES | GI50 (NCI/ADR-RES) | GI50 (SN12C) | GI50 (NCI-H522) | GI50 (ACHN) | GI50 (HOP-62) | GI50 (CCRF-CEM) | GI50 (SR) | GI50 (CAKI-1) | GI50 (Hs-578T) | GI50 (HCT-116) | GI50 (SK-MEL-2) | GI50 (BT-549) | GI50 (PC-3) | GI50 (SF-295) | GI50 (OVCAR-8) | GI50 (MDA-MB-435) | GI50 (UO-31) | GI50 (LOX IMVI) | GI50 (COLO 205) | GI50 (A549)
NCC(=O)Nc1ccc(Cl)cc1C(=O)c1ccc[nH]1 | 49 µM (inactive) | > 36.3 µM (inactive) | 11.5 µM (inactive) | > 74 µM (inactive) | > 94.2 µM (inactive) | 3.42 µM (inactive) | 8.99 µM (inactive) | 78 µM (inactive) | > 67.5 µM (inactive) | 7.64 µM (inactive) | 61.1 µM (inactive) | 70.3 µM (inactive) | 25.9 µM (inactive) | > 100 µM (inactive) | > 56.8 µM (inactive) | 45.2 µM (inactive) | 21.7 µM (inactive) | 9.95 µM (inactive) | > 86.1 µM (inactive) | 63.1 µM (inactive)
CC(=O)OCc1ccc(O)c(C=O)c1 | > 100 µM (inactive) | 84.3 µM (inactive) | > 100 µM (inactive) | > 100 µM (inactive) | > 100 µM (inactive) | 46.3 µM (inactive) | 60.3 µM (inactive) | > 100 µM (inactive) | > 100 µM (inactive) | 40.4 µM (inactive) | > 100 µM (inactive) | > 100 µM (inactive) | 88.9 µM (inactive) | > 100 µM (inactive) | 96.2 µM (inactive) | > 100 µM (inactive) | 56.8 µM (inactive) | > 100 µM (inactive) | > 100 µM (inactive) | > 100 µM (inactive)
CC(C)(C)CN1[C@@H]2CCCC[C@H]2N(CC(C)(C)C)P1(=O)Cc1ccccc1 | 12.1 µM (inactive) | 16.3 µM (inactive) | 7.48 µM (inactive) | 15.2 µM (inactive) | 16.4 µM (inactive) | 11 µM (inactive) | 11.8 µM (inactive) | 12.7 µM (inactive) | 15.7 µM (inactive) | 10.2 µM (inactive) | 16.1 µM (inactive) | 17.1 µM (inactive) | 6.5 µM (inactive) | 10.4 µM (inactive) | 14.4 µM (inactive) | 16.2 µM (inactive) | 13.3 µM (inactive) | 15.7 µM (inactive) | 10.4 µM (inactive) | 11.6 µM (inactive)
O=C1c2cscc2C(=O)C1(O)O | > 100 µM (inactive) | 20 µM (inactive) | 18.7 µM (inactive) | > 100 µM (inactive) | > 100 µM (inactive) | 23.7 µM (inactive) | 19.1 µM (inactive) | 30.8 µM (inactive) | > 100 µM (inactive) | 21.3 µM (inactive) | > 100 µM (inactive) | 31.5 µM (inactive) | 78 µM (inactive) | > 100 µM (inactive) | 32.9 µM (inactive) | 32.6 µM (inactive) | 27.3 µM (inactive) | > 100 µM (inactive) | 19.2 µM (inactive) | > 100 µM (inactive)
Cc1sc2[nH]c(=O)oc(=O)c2c1C | 35.1 µM (inactive) | > 76.2 µM (inactive) | 26 µM (inactive) | 97.7 µM (inactive) | 72.8 µM (inactive) | 39.6 µM (inactive) | 37.8 µM (inactive) | 35.8 µM (inactive) | 28.6 µM (inactive) | > 100 µM (inactive) | 37.7 µM (inactive) | 22.9 µM (inactive) | > 100 µM (inactive) | > 77.8 µM (inactive) | 65.8 µM (inactive) | 39.9 µM (inactive) | 33 µM (inactive) | 44.6 µM (inactive) | 59 µM (inactive) | > 83.8 µM (inactive)
COc1cccc(C(=O)Nc2c3ccccc3nc3ccccc23)c1OC | > 100 µM (inactive) | > 100 µM (inactive) | 29.2 µM (inactive) | 45.5 µM (inactive) | 45.7 µM (inactive) | > 100 µM (inactive) | > 100 µM (inactive) | > 100 µM (inactive) | 36.8 µM (inactive) | > 100 µM (inactive) | > 100 µM (inactive) | > 100 µM (inactive) | > 100 µM (inactive) | 39.1 µM (inactive) | 88.9 µM (inactive) | > 100 µM (inactive) | 2.96 µM (inactive) | > 100 µM (inactive) | > 100 µM (inactive) | 84.9 µM (inactive)
OCCOCCO[P+]1(OCCOCCO)n2c3ccc2C(c2ccccc2)=C2C=CC(=N2)C(c2ccccc2)=c2ccc(n21)=C(c1ccccc1)C1=NC(=C3c2ccccc2)C=C1 | 7.14 µM (inactive) | 0.11 µM (active) | 0.186 µM (active) | 0.35 µM (active) | 0.379 µM (active) | 0.0231 µM (active) | 1 µM (active) | 1.68 µM (inactive) | 0.127 µM (active) | 0.0836 µM (active) | 0.0395 µM (active) | 0.0385 µM (active) | 0.107 µM (active) | 0.281 µM (active) | 0.174 µM (active) | 0.0316 µM (active) | 1.86 µM (inactive) | 0.0989 µM (active) | 0.0206 µM (active) | 0.113 µM (active)
NC(=O)c1nnn(Cc2cc(Cl)c(C(=O)c3ccc(Cl)cc3)c(Cl)c2)c1N [CARBOXYAMIDOTRIAZOLE] | 32.1 µM (inactive) | 29.2 µM (inactive) | 19 µM (inactive) | 9.46 µM (inactive) | 25.7 µM (inactive) | 31 µM (inactive) | 6.75 µM (inactive) | 12.4 µM (inactive) | 39 µM (inactive) | 11.1 µM (inactive) | 11.1 µM (inactive) | 21.6 µM (inactive) | 19.5 µM (inactive) | 9.77 µM (inactive) | 24.1 µM (inactive) | 11 µM (inactive) | 25.6 µM (inactive) | 22 µM (inactive) | 27.8 µM (inactive) | 12.7 µM (inactive)
COc1cc2c(c(OC)c1OC)-c1ccc(=O)c(O)cc1[C@@H](NC(C)=O)CC2 [COLCHICEINE] | 6.98 µM (inactive) | 16.8 µM (inactive) | 12.2 µM (inactive) | 18.1 µM (inactive) | 24.9 µM (inactive) | 11.9 µM (inactive) | 2.99 µM (inactive) | 12.6 µM (inactive) | 21.3 µM (inactive) | 27.7 µM (inactive) | 25.5 µM (inactive) | 14.6 µM (inactive) | 17.8 µM (inactive) | 22.2 µM (inactive) | 13.3 µM (inactive) | 18.4 µM (inactive) | 17.6 µM (inactive) | 12.6 µM (inactive) | 19.4 µM (inactive) | 27.7 µM (inactive)
